Measured values reported in patent US8680282B2, “Cyclic inhibitors of carnitine palmitoyltransferase and treating cancer” (University Health Network, priority 2007, dated 2014).

Tests used:
COLO-205 = assay: Cancer cell growth inhibition, SRB assay; type: cell-based, human; conditions: COLO-205; at 10 μM; SRB at Day 6; NE = no activity at 10 micromolar
HCT-15 = assay: Cancer cell growth inhibition, SRB assay; type: cell-based, human; design: Percentage of Growth Inhibition: scale not given here; conditions: HCT-15; at 10 μM; SRB at Day 6; NE = no activity at 10 micromolar
MCF-7 = assay: Cancer cell growth inhibition, SRB assay; type: cell-based, human; design: Percentage of Growth Inhibition: scale not given here; conditions: MCF-7; at 10 μM; SRB at Day 6; NE = no activity at 10 micromolar
Method: (§1) Human cancer cells (MCF-7, H358, H460, HCT116 p53^+/+, HCT116 p53^−/−, A172, PC-3, DU-145 and SW626) were maintained in DMEM medium containing 10% Fetal Bovine Serum (FBS) (Invitrogen, Burlington, ON, Canada) and normal cells HMEC, 184A1, NHBE and PrEC were cultured in MEGM, MEGM plus transferring and cholera toxin, BEGM and PrEGM supplemented with various growth factors (Cambrex, Charles city, Iowa, USA), respectively.
(§2) Compounds of Examples S1 to S30, and 4-(carboxymethyl)-4-(6-(3-hexyloxy)phenoxy)hexanoamido)-1,1-dimethylpiperidinium 2,2,2-trifluoroactate (“Compound A”) were tested in this example. Each of the tested compounds was dissolved in DMSO and further diluted in cell culture medium for the experiments performed. Cells were seeded into 96-well plates with 1,500-5,000 cells/well according to cell growth rate. After 24 h, DMEM medium containing 10% FBS were changed to DMEM containing 3% FBS for cancer cells. The compound was added into the cell culture at the indicated concentrations, and the final concentration of DMSO was adjusted to a final concentration of 0.1%. Cell viability was assessed by Sulforhodamine B (SRB) assay at Day 6.
(§3) Sulforhodamine B (SRB) (Sigma, Oakville, ON, Canada) is a water-soluble dye that binds to the basic amino acids of the cellular proteins. Thus, colorimetric measurement of the bound dye provides an estimate of the total protein mass that is related to the cell number. The cells were fixed in situ by gently aspirating off the culture media and adding 50 ul of cold 10% Tri-chloroacetic Acid (TCA) per well and incubated at 4° C. for 30-60 min. The plates were washed five times with water and allowed to air dry for 5 min. 50 ul of 0.4% (w/v) SRB dissolved in 1% (v/v) acetic acid were added into each well, plates were then incubated at RT for 30 min for staining, washed four times with 1% acetic acid to remove any unbound dye and then allowed to air dry for 5 min. Stain was solubilized with 100 ul of 10 mM Tris pH 10.5 per well. Absorbance was read at 570 nm on a spectrophotometer. GI50 (compound concentration required for 50% of growth inhibition) was calculated using GraphPad Prism 4.0 software (GraphPad Software, Inc., San Diego, Calif., USA). Growth inhibition (%) was determined as percentage of cells remaining compared to the DMSO-treated cells as control.

SW626 = assay: Cancer cell growth inhibition, SRB assay; type: cell-based, human; design: Percentage of Growth Inhibition: scale not given here; conditions: SW626; at 10 μM; SRB at Day 6; NE = no activity at 10 micromolar
Method: as §1, §2, §3

SW620 = assay: Cancer cell growth inhibition, SRB assay; type: cell-based, human; design: Percentage of Growth Inhibition: scale not given here; conditions: SW620; at 10 μM; SRB at Day 6; NE = no activity at 10 micromolar
A172 = assay: Cancer cell growth inhibition, SRB assay; type: cell-based, human; conditions: A172; at 10 μM; SRB at Day 6; NE = no activity at 10 micromolar
Method: as §1, §2, §3

PC-3 = assay: Cancer cell growth inhibition, SRB assay; type: cell-based, human; conditions: PC-3; at 10 μM; SRB at Day 6; NE = no activity at 10 micromolar
Method: as §1, §2, §3

H358 = assay: Cancer cell growth inhibition, SRB assay; type: cell-based, human; design: Percentage of Growth Inhibition: unit not given here; conditions: H358; at 10 μM; SRB at Day 6; NE = no activity at 10 micromolar
Method: as §1, §2, §3

SW480 = assay: Cancer cell growth inhibition, SRB assay; type: cell-based, human; conditions: SW480; at 10 μM; SRB at Day 6; NE = no activity at 10 micromolar
human CPT1A = target: T1, human CPT1A (Homo sapiens, UniProt P50416); assay: Human CPT1A LC/MS assay; type: biochemical
T1 construct: made in house; host or cells: Saccharomyces cerevisiae (pESC-trp) or cultured mammalian cells (pCDNA3.1); mitochondrial extract
T1 sequence (P50416 1-773): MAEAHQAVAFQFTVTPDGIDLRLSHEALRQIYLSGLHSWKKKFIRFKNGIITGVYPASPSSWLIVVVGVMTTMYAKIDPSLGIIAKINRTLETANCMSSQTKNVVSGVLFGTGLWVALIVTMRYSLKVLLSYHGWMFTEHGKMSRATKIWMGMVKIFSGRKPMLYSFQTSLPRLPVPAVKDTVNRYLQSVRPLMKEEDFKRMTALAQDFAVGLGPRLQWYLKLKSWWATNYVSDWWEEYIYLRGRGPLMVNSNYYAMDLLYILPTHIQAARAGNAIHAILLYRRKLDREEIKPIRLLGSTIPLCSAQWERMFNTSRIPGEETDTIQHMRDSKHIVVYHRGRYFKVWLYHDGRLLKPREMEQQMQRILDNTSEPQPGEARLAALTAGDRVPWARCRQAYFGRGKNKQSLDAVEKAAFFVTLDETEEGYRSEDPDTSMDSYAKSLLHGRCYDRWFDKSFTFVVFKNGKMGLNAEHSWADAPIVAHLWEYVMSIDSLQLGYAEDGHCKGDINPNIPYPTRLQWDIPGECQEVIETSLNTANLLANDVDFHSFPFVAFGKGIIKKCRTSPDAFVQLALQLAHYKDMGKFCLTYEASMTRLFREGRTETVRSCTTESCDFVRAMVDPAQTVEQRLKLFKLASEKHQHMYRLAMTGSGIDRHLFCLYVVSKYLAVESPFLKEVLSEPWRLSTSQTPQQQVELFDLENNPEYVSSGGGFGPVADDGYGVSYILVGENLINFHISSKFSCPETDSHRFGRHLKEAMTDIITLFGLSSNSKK
Source text: Nucleotide sequences encoding human CPT1 enzymes were individually cloned into the yeast expression vector pESC-trp at the Cla1 (5′ terminus) and Pac1 (3′ terminus) restriction sites by PCR amplification of the open reading frame using oligonucleotide primers designed to encode the wild-type CPT1 protein sequence. Standard molecular biology techniques were used to transform and express the CPT1 proteins in the yeast Saccharomyces cerevisiae. The yeast cells were lysed by enzymatic degradation of the cell wall by Zymolase, and the mitochondria were isolated by standard biochemical techniques. The integrity of the isolated mitochondria was monitored by determining the activity of succinate dehydrogenase in the mitochondrial preparations. The mitochondrial extracts were stored at −80° C. in buffer containing 10 mM HEPES pH 7.4 and 250 mM sucrose.
Human CPT1 (A, B, C) genes were additionally cloned into the pCDNA3.1 vector individually for expression in cultured mammalian cells. Cells expressing the exogenous CPT1A were identified and grown under standard conditions. Mammalian cells were harvested, and mitochondrial extracts prepared using standard biochemical methods. The mitochondrial extracts were stored at −80° C. in buffer containing 10 mM HEPES pH 7.4 and 250 mM sucrose.
Assays were performed in 96-well plate format. Each 100 μL reaction contained 40 mM KCl, 50 mM TrisHCl pH 7.5, and 250 mM mannitol (Assay Buffer), and 1.6 μg protein of an extract, 20 μM palmitoyl-CoA, 50 μM L-carnitine, and 10 ug/mL BSA. Reactions were incubated at room temperature and stopped after 10 minutes by extraction with 200 μL of water saturated n-butanol containing myristoyl carnitine (500 nM) as an internal standard. The samples were thoroughly mixed, and the phases separated by centrifugation. Samples were prepared for analysis with a 10 fold dilution of the n-butanol phase containing the reaction product palmitoyl carnitine into a 50:50 (acetonitrile:water) solvent for analysis. 5 μL of prepared sample was separated on a Phenomenex Jupiter 5μ C4 reverse-phase column using an Agilent 1100 HPLC with a gradient from 50% acetonitrile (0.5% acetic acid) to 100% acetonitrile and quantified by detection with a Bruker Esquire 3000plus mass spectrometer. The abundance of the palmitoyl carnitine product was determined relative to the internal standard and the actual quantity of palmitoyl carnitine can be determined from a standard curve prepared using the n-butanol solution containing the internal standard.
Compounds were evaluated in two formats, a screening format, and a dose response format. The screening format was performed by adding 25 μL compound in 20% DMSO and Assay Buffer to 25 μL of extract containing […] and Assay Buffer, followed by a 10 minute incubation at room temperature. 50 μL of 40 μM palmitoyl-CoA in Assay Buffer was added to the reaction mixture, mixed and incubated for 10 minutes at room temperature. A negative control for activity was also performed where the carnitine was omitted from the reaction. A positive control for activity was also performed by omitting compound from the solution containing 20% DMSO and Assay Buffer. The reaction mixture was extracted and analyzed as described above. The inhibition by compound was determined by comparing the control relative activity to the relative activity observed in wells containing the compound. Relative activity was determined by subtracting the relative intensity (area palmitoyl carnitine/area myristoyl carnitine) observed in the negative control from the relative intensity observed in the experimental well, and dividing by the relative activity observed in the positive control.
[formula] Compound characterization by dose response format was performed using the above described assay conditions and a 16 point compound titration in 2 fold compound dilution steps. The DMSO concentration was kept constant at 20% (v/v) for all compound concentrations.

HCT-8 = assay: Cancer cell growth inhibition, SRB assay; type: cell-based, human; conditions: at 10 μM, SRB at Day 6
[1] = human CPT1A LC/MS assay, dose response format

## CCCCCCCCc1ccc(NC(=O)NC2(CC(=O)O)CCN(C)CC2)cc1 [Example S1, 4-(carboxymethyl)-1-methyl-4-(3-(4-octylphenyl)ureido)piperidinium 2,2,2-trifluoroacetate]
COLO-205
  Percentage of Growth Inhibition: 0.07287%
HCT-15
  Percentage of Growth Inhibition: 0.05911%
MCF-7
  Percentage of Growth Inhibition: 0.1204%
SW626
  Percentage of Growth Inhibition: 0.05142%
SW620
  Percentage of Growth Inhibition: 0.04345%
A172
  Percentage of Growth Inhibition: 0.1571%
PC-3
  Percentage of Growth Inhibition: 0.1924%
H358
  Percentage of Growth Inhibition: 0.4324
SW480
  Percentage of Growth Inhibition: 0.08459%

## CCCCCc1ccc(S(=O)(=O)NC2(CC(=O)O)CCC[N+](C)(C)C2)cc1 (centres unmarked) [Example S12, 3-(carboxymethyl)-1,1-dimethyl-3-(4-pentylphenylsulfonamido)-piperidinium 2,2,2-trifluoroacetate]
COLO-205
  Percentage of Growth Inhibition: 0.1281%
MCF-7
  Percentage of Growth Inhibition: 0.2351%
SW626
  Percentage of Growth Inhibition: 0.00486%
A172
  Percentage of Growth Inhibition: 0.07689%
H358
  Percentage of Growth Inhibition: 0.04495
Human CPT1A; [1]
  IC50: ≤ 1 µM

## CN1CCCC(CC(=O)O)(NC(=O)c2ccc(CCc3ccccc3)o2)C1 (centres unmarked) [Example S13, 3-(carboxymethyl)-1-methyl-3-(5-phenethylfuran-2-carboxamido)-piperidinium 2,2,2-trifluoroacetate]
Human CPT1A; [1]
  IC50: 100 to 1000 µM

## C[N+]1(C)CCCC(CC(=O)O)(NC(=O)c2ccc(CCc3ccccc3)o2)C1 (centres unmarked) [Example S14, 3-(carboxymethyl)-1,1-dimethyl-3-(5-phenethylfuran-2-carboxamido)piperidinium 2,2,2-trifluoroacetate]
SW620
  Percentage of Growth Inhibition: 0.04122%
H358
  Percentage of Growth Inhibition: 0.3919
Human CPT1A; [1]
  IC50: 10 to 100 µM

## CCCCCCCCc1ccc(NC(=O)NC2(CC(=O)O)CCN(C)C2)cc1 (centres unmarked) [Example S17, 3-(carboxymethyl)-1-methyl-3-(3-(4-octylphenyl)ureido)pyrrolidinium 2,2,2-trifluoroacetate]
Human CPT1A; [1]
  IC50: 10 to 100 µM

## CCCCCc1ccc(S(=O)(=O)NC2(CC(=O)O)CCN(C)C2)cc1 (centres unmarked) [Example S19, 3-(carboxymethyl)-1-methyl-3-(4-pentylphenylsulfonamido)-pyrrolidinium 2,2,2-trifluoroacetate]
MCF-7
  Percentage of Growth Inhibition: 0.08166%
Human CPT1A; [1]
  IC50: 100 to 1000 µM

## CCCCCc1ccc(S(=O)(=O)NC2(CC(=O)O)CNC2)cc1 [Example S25, 3-(carboxymethyl)-3-(4-pentylphenylsulfonamido)azetidinium 2,2,2-trifluoroacetate]
HCT-15
  Percentage of Growth Inhibition: 0.00572%
MCF-7
  Percentage of Growth Inhibition: 0.1452%
SW626
  Percentage of Growth Inhibition: 0.07606%
H358
  Percentage of Growth Inhibition: 0.05754
Human CPT1A; [1]
  IC50: > 2500 µM

## CCCCCCCCc1ccc(NS(=O)(=O)NC2(CC(=O)O)CNC2)cc1.O=C(O)C(F)(F)F [Example S28, 3-(carboxymethyl)-3-(N-(4-octylphenyl)sulfamoylamino)azetidinium 2,2,2-trifluoroacetate]
HCT-8
  Percentage of Growth Inhibition: 0.06675%
MCF-7
  Percentage of Growth Inhibition: 0.04154%
SW626
  Percentage of Growth Inhibition: 0.04727%
A172
  Percentage of Growth Inhibition: 0.3077%
PC-3
  Percentage of Growth Inhibition: 0.6043%
H358
  Percentage of Growth Inhibition: 0.06989
Human CPT1A; [1]
  IC50: > 2500 µM

## C[N+](C)(C)C[C@H](N)CC(=O)[O-] [L-aminocarnitine, reference compound]
Human CPT1A; dose response assay, n=17
  IC50: 7 ± 2.5 µM
